Measurements: patent publication US20250236901A1, “METHOD OF DETECTING A MICROORGANISM HAVING HIPPURICASE ACTIVITY” (BIOSYNTH AG, priority 2022, published 2025)

Experiments:
Format in all cases: cell-based
[1] = tested on: Campylobacter jejuni DSM 4688; assay: Detection of hippuricase activity with 4-HHA, 4-aminoantipyrine and oxidizing reagent (color / absorbance at 505 nm); conditions: for time to plateau of absorbance at 505 nm: HRP/H2O2
Procedure: (§1) Campylobacter jejuni DSM 4688 (C. j., catalase positive), Eschericha coli (E. coli, catalase positive) and Campylobacter coli DSM 4689 (C. c., catalase positive), Streptococcus agalactiae ATCC®12386 (S. a., catalase negative) and Streptococcus pyogenes ATCC®19615 (S. p., catalase negative) were cultivated on Columbia Agar with sheep blood (Thermofischer PB5039A) at 37° C. for 48 h, both Campylobacter strains were cultivated under microaerophilic atmosphere (Oxoid, Campylgen CN0025A).
(§2) Biomass of colonies were suspended in sterile phosphate buffer (100 mM, pH 7.4) and the optical density OD was determined and set to OD600 of 0.9.
(§3) Two hundred μL of cell suspensions were mixed with 25 μL of 4-hydroxyhippuric acid (4-HHA, Bachem, 4005059) stock solution, prepared in 100 mM phosphate buffer pH adjusted to 7.4 in a microtiter plate (SpektraMax M5, Molecular Devices) and incubated for 70 minutes at 37° C. After incubation, 20 μL of a prepared mixture (12.5×) 4-aminoantipyrine (4-AAP, Merck 06800) and peroxidase (HRP, Merck 77332) and 5 μL of 100 mM H2O2 were added. The absorbance at 505 nm was recorded with a plate reader at room temperature. Final concentrations for the assay were 5 mM, 10 mM and 20 mM 4-HHA, 0.5 mM 4-AAP, 4.5 U/mL HRP and 2 mM H2O2.
(§4) Biomass of colonies were suspended in sterile 100 mM phosphate buffer pH 7.4 and the optical density OD600 was set to 0.9 and then serially diluted with the same buffer to an OD600 of 0.5, 0.2 and 0.1.
(§5) Two hundred μL of cell suspensions were mixed with 25 μL of 100 mM 4-hydroxyhippuric acid (4-HHA, Bachem 4005059) prepared in 100 mM phosphate buffer pH adjusted to 7.4) in a microtiter plate and incubated for 1 h at 37° C. After incubation, 20 μL of the prepared mixture (12.5×) 4-aminoantipyrine (4-AAP, Merck 06800) and peroxidase (HRP, Merck 77332), 5 μL of 100 mM H2O2 were added. The absorbance at 505 nm was recorded with a plate reader (SpektraMax M5, Molecular Devices) at room temperature. Final concentrations for the assay were 10 mM 4-HHA, 0.5 mM 4-AAP, 4.5 U/mL HRP and 2 mM H2O2.
(§6) Biomass of colonies were suspended in sterile phosphate buffer (100 mM, pH 7.4) and the optical density OD was set to 0.9 and then serially diluted with the same buffer to an OD600 of 0.5, 0.2 and 0.1.
(§7) Two hundred μL of cell suspension were mixed with 25 μL of 100 mM 4-hydroxyhippuric acid (4-HHA, Bachem 4005059, dissolved in 100 mM phosphate puffer pH 7.4) in microtiter plate and incubated for 1 h at 37° C. After incubation, 10 μL of the prepared mixture (25×) 4-aminoantipyrine (4-AAP, Merck 06800) and peroxidase (HRP, Merck 77332), 10 μL of 250 mM glucose (Merck, G8270) and 5 μL of glucose oxidase (GOD, Merck G2133) 50 U/mL were added. The absorbance at 505 nm was recorded with a plate reader. Final concentration of 4-HHA was 10 mM, 4-AAP was 0.5 mM, HRP was 4.5 U/mL, glucose was 10 mM and GOD was 1 U/mL.
(§8) Biomass of colonies were suspended, a) 0.2 mL sterile 100 mM phosphate buffer pH 7.4; b) 0.1 mL sterile water (as recommended in manual), c) 0.5 mL saline solution (as recommended in manual). To ensure a proper comparability, the optical density OD600 of all cell suspensions were set to 0.2. In method a) 25 μL of 100 mM 4-hydroxyhippuric acid (4-HHA, Bachem 4005059 prepared in 100 mM phosphate buffer pH adjusted to 7.4) was added to cell suspensions. In methods b) and c), Hippurate disks and Hippurate strips were dropped in cell suspensions as recommended in manual. To ensure a proper comparability, all samples were incubated at 37° C. for 1 h.
After incubation, 10 μL of the prepared mixture (25×) 4-aminoantipyrine (4-AAP, Merck 06800) and peroxidase (HRP, Merck 77332), followed with 5 μL of 100 mM H2O2 were added in samples of method a). Final concentrations for the assay were 10 mM 4-HHA, 0.5 mM 4-AAP, 4.5 U/mL HRP and 2 mM H2O2.

[2] = tested on: Campylobacter coli DSM 4689; assay: as above
Procedure: as §1, §2, §3, §4, §5, §6, §7
as §8, with “To ensure a proper comparability, all samples were incubated at 37° C. for 1 h.” left out

[3] = tested on: Streptococcus pyogenes ATCC®19615; assay: Detection of hippuricase activity with 4-HHA, 4-aminoantipyrine and oxidizing reagent; conditions: Example 6; OD600 0.5-0.6; 10 mM 4-HHA; HRP/H2O2, HRP/Glu/GOD or NaIO4
Procedure: (§9) Streptococcus agalactiae ATCC®12386 and Streptococcus pyogenes ATCC®19615 were cultivated on Columbia Agar with sheep blood (Thermofischer PB5039A) at 37° C. for 48 h.
(§10) Biomass of colonies were suspended in sterile 100 mM phosphate buffer pH 7.4 and the optical density OD600 was set to 0.5-0.6.
as §5, with “incubated for 80 min. at 37°” for “incubated for 1 h at 37°”, “06800) and horseradish peroxidase (HRP,” for “06800) and peroxidase (HRP,”, “at room temperature and endpoint of absorbance at 505 nm was evaluated (FIG. 8A). Final concentrations” for “at room temperature. Final concentrations”
(§11) Two hundred μL of cell suspension were mixed with 25 μL of 100 mM 4-hydroxyhippuric acid (4-HHA, Bachem 4005059, dissolved in 100 mM phosphate puffer pH 7.4) in microtiter plate and incubated for 1 h at 37° C. […] The absorbance at 505 nm was recorded with a plate reader and endpoint of absorbance at 505 nm was evaluated (FIG. 8B). […]

[4] = tested on: Streptococcus agalactiae ATCC®12386; assay: as above; conditions: Example 6; OD600 0.5-0.6; 10 mM 4-HHA; HRP/H2O2, HRP/Glu/GOD or NaIO4
Procedure: as §9, §10
as §5, with “incubated for 80 min. at 37°” for “incubated for 1 h at 37°”, “06800) and horseradish peroxidase (HRP,” for “06800) and peroxidase (HRP,”, “at room temperature and endpoint of absorbance at 505 nm was evaluated (FIG. 8A). Final concentrations” for “at room temperature. Final concentrations”
as §11

[5] = tested on: Eschericha coli; assay: Detection of hippuricase activity with 4-HHA, 4-aminoantipyrine, HRP and H2O2; conditions: Example 1; OD600 0.9; 5, 10, 20 mM 4-HHA, 70 min 37° C.; 0.5 mM 4-AAP, 4.5 U/mL HRP, 2 mM H2O2
Procedure: as §1, §2, §3

[6] = tested on: catalase-positive samples (Campylobacter); assay: Catalase control experiment: chromogenic reaction of p-hydroxybenzoic acid with 4-AAP/HRP/H2O2 in presence of cells; conditions: 1 mM 4-HBA, 0.5 mM 4-AAP, 4.5 U/mL HRP, 1 mM H2O2; OD600 0.4 to 0.5; FIG. 2B, FIG. 9
Procedure: In a catalase control experiment, biomass of colonies was suspended in sterile phosphate buffer (100 mM, pH 7.4) and the optical density OD was determined and then serially diluted with the same buffer to an OD600 of 0.4 to 0.5.
One hundred to 150 μL of cell suspension were mixed with 50 to 100 μL of 100 mM phosphate puffer pH 7.4 and 50 μL of the prepared mixture (5×) 4-aminoantipyrine (4-AAP, Merck 06800, 2.5 mM), peroxidase (HRP, Merck 77332, 22.5 U/mL) and 4-hydroxybenzoic acid (4-HBA, Merck H20059, 5 mM, dissolved in 100 mM phosphate puffer pH 7.4) and 5 μL of 50 mM H2O2 were added. The absorbance at 505 nm was recorded with a plate reader (SpektraMax M5, Molecular Devices) at room temperature. Final concentrations for the assay are 1 mM 4-HBA, 0.5 mM 4-AAP, 4.5 U/mL HRP and 1 mM H2O2. (FIG. 2B)
Two hundred μL of cell suspension were mixed with 20 μL of 100 mM phosphate puffer pH 7.4, 5 μL 50 mM and p-4-hydroxybenzoic acid (p-HBA, Merck H20059 dissolved in 100 mM phosphate puffer pH 7.4), 20 μL of mixture 4-aminoantipyridine (Merck 06800, 6.25 mM) and horseradish peroxidase (Merck 77332, 56.3 U/mL), followed by the addition of 5 μL of 50 mM H2O2. The absorbance at 505 nm was recorded with a plate reader (SpektraMax M5, Molecular Devices) at room temperature. Final concentrations for the assay are 1 mM p-4-HBA, 0.5 mM 4-AAP, 4.5 U/mL HRP and 1 mM H2O2. (FIG. 9)

[7] = Example 1, OD600 0.9, 5, 10, 20 mM 4-HHA, 70 min 37° C., 0.5 mM 4-AAP, 4.5 U/mL HRP, 2 mM H2O2

`O=C(O)CNC(=O)c1ccc(O)cc1` [4-HHA, p-hydroxyhippuric acid] was tested, and the “time to plateau of absorbance at 505 nm” value ([1]; Example 1, FIG. 2A, OD600 0.9) was “about 5 minutes”, the color of sample [1, 7] was “robust red to pink color” and the “time to plateau of absorbance at 505 nm” value ([1]; Example 2, FIG. 3, OD600 value of 0.1) was “about 10 minutes”. For the same molecule, the color of sample ([1]; Example 2, OD600 0.1 to 0.9, 10 mM 4-HHA 1 h 37° C., HRP/2 mM H2O2) was “robust red to pink color”, the color of sample ([1]; Example 3, OD600 0.1 to 0.9, 10 mM 4-HHA 1 h 37° C., HRP, 10 mM glucose, 1 U/mL GOD) was “robust red to pink color” and the color of sample ([1]; Example 4 method a), OD600 0.2, 10 mM 4-HHA 1 h 37° C., HRP/2 mM H2O2, few minutes at room temperature) was “significant pink color”. For the same molecule, the color of sample ([1]; Example 5, OD600 0.1 to 1.1, 10 mM 4-HHA 1 h 37° C., 2 mM 4-AAP, 2 mM NaIO4) was “red to pink color”, the color of sample [2, 7] was “colorless or slightly yellowish” and the color of sample ([2]; Example 2, all OD600 values 0.1 to 0.9, 10 mM 4-HHA 1 h 37° C., HRP/2 mM H2O2) was “colorless or slightly yellowish”. For the same molecule, the color of sample ([2]; Example 3, all OD600 values, 10 mM 4-HHA 1 h 37° C., HRP, 10 mM glucose, 1 U/mL GOD) was “colorless or slightly yellowish”, the color of sample ([2]; Example 4 method a), OD600 0.2, 10 mM 4-HHA 1 h 37° C., HRP/2 mM H2O2) was “slightly yellowish” and the color of sample ([2]; Example 5, all OD600 values, 10 mM 4-HHA 1 h 37° C., 2 mM 4-AAP, 2 mM NaIO4) was “colorless or slightly yellowish”. For the same molecule, the color of sample [3] was “colorless or slightly yellowish”, the color of sample [4] was “pink color” and the color of sample [5] was “colorless or slightly yellowish”.

With `O=C(O)c1ccc(O)cc1` [p-hydroxybenzoic acid] the “time after which the chromogenic reaction stopped (absorbance at 505 nm)” value [6] was “about 5 minutes”.
